From patent publication EP0382411B1, “Delivery of cytotoxic agents” (ELI LILLY AND COMPANY, priority 1989, dated 1990)
Values after ≈ are worked out from the molar mass of the structure shown. Values joined by “and” are separate entries in the source; they are usually repeats but may differ in a detail not shown here. Equal entries are not always repeated.

Assays:
male Fischer 344 rats = test: Rat hematology protocol (white blood cell determination); assay type: in vivo; details: for WBC's, Day 0, Mean: group mean of 5 rats; for WBC's, Day 0, Mean / WBC's, Day 0: pre-bleed before i.v. injection of 1 mg/kg; for WBC's, Day 3, Mean / WBC's, Day 7, Mean: group mean; for WBC's, Day 7, Mean / WBC's, Day 7: day 7 after 1 mg/kg i.v.; for WBC's, Day 3 / WBC's, Day 7 / WBC's, Day 0: individual rat; for WBC's, Day 0: 1 mg/kg
Experimental: The purpose of the following procedure was to compare the toxicity of the Substrate-Cytotoxic Agent to the toxicity of Cytotoxic Agent alone. • 1. Day 0: 25 male Fischer 344 rats (∼100g) are pre-bled (eyebleed) and injected i.v. as follows: • Group A: 5 rats + vehicle control: 0.5 ml 10 mM HEPES, 150 NaCl, pH 7.1 buffer containing 10% ethanol. • Group B: 5 rats + 1 mg/kg 4 desacetylvinblastine-3-carboxhydrazide (DAVLBHYD). Dissolve 1 mg DAVLBHYD in 0.5 ml absolute ethanol and add 4.5 ml HEPES-NaCl buffer. Inject each rat with 0.5 ml. • Group C: 5 rats + 1 mg/kg ("LY262758") (7-β-2-(phenoxyacetamido)-3-(((desacetylvinblastine)aminocarboxy)methylene)-3-cephem-1-β-sulfoxide-4-carboxybiacid, trifluoroacetic acid salt) (vinca content), (58% vinca). Dissolve 2 mg as above and inject 0.5 ml. • Group D: 5 rats + 1mg/kg ("LY266494"), (7-β-(2-(thien-2-yl)acetamido-3-(((desacetylvinblastinehydrazido)carbonyloxy)methylene)-3-cephem-4-carboxylic acid, hydrochloride salt (55.8% vinca). Dissolve 2 mg and inject 0.5 ml. • Group E: 5 rats + 1 mg/kg ("LY266070") 7-β-(2-(thien-2-yl)acetamido-3-(((desacetylvinblastinehydrazido)carbonyloxy)methylene)-3-cephem-1-β-sulfoxide-4-carboxylic acid, trifluoroacetic acid salt. Dissovle 2 mg and inject 0.5 ml. All animals were indentifed by ear punch and were bled on days 3 and 7 post treatment for white blood cell (WBC) determination. The raw data are on the following page. […] The WBC values of the groups were indistinguishable at day 7 (and lower than the pre-bleed which may have been due to using a different instrument for the WBC determination).

[1] = test system: CEA - bearing LS174T tumor cells; test: In vitro cytotoxicity determination (3H-leucine uptake); assay type: cell-based
Experimental: Target cells (antigen positive or antigen negative) are resuspended in 75% leucine deficient EBSS-MEM (GIBCO, Grand Island, NY) + 10% dialyzed fetal bovine serum (FBS) + gentamicin (GIBCO) at 200,000 cells/ml. Aliquots of this cell suspension, 0.2 ml, are seeded into 96 well plates and incubated overnight at 37°C, 5% CO₂. To the supernatants is added the antibody-enzyme conjugate to a final concentration of 25 µg/ml (unconjugated enzyme, unconjugated antibody, no treatment). The supernatants are removed after 1 hr incubation, and the cells rinsed once with media. The media is then replaced with the same media, but containing a Substrate-Cytotoxic Agent at concentrations between 0.001 and 10 µg/ml. The cells are incubated with the Substrate-Cytotoxic Agent compound for a period of time ranging from 3 to 48 h at 37°C, 5% CO₂. Media containing 4 µCi of ³H-leucine are added per well. The cells are incubated 24 hr with the labeled leucine, then harvested. Uptake of labeled leucine is determined by liquid scintillation counting. (All Samples are run in triplicate.) Results are reported as the Substrate-Cytotoxic Agent concentration at which leucine incorporation is reduced to 50% of the control value (ID₅₀).
The rest of the experiment was carried using the above standard procedure.

[2] = biological target: P-99 E. cloacae beta-lactamase Enzyme (Enterobacter cloacae, UniProt P05364); test: Release of substituents from the 3'-methylene group of cephalosporins on treatment with beta-lactamase; assay type: biochemical
Experimental: (If the detection method is not instantaneous, the enzyme can be stopped at the desired time by addition of an inhibitor such as cloxacillin (Sigma, St. Louis, Mo.) at its effective concentration: 5 µM for cloxacillin.)
For instance, a model system for the present method employs the expulsion of aminoethanethiol from 7-β-(2-(thien-2-yl)acetamido)-3-((2-aminoethyl-1-sulfide)methylene)-3-cephem-4-carboxylic acid. A typical enzyme assay was performed (following the 264 nm absorbance), but in 50 mM Tris, 100 mM NaCl buffer, pH 8.0. […] Using molar extinction coefficients of 8,540 for the 264 nm absorbance, and 13,600 for the 412 nm absorbance, the rates of the two reactions can be compared (reaction of thiol with DTNB is instantaneous under these conditions).
A stock solution of P-99 E. cloacae beta-lactamase Enzyme was prepared. To the stock solution of the cephalosporin Substrate (90 µl) was added stock beta-lactamase solution (10 µl). The reaction was monitored by HPLC (on a Waters Associates C₁₈ µ Bondapak column) eluted with 25% acetonitrile/ 1% acetic acid in water (monitered at 254 nm absorbance). The retention time for 5-fluorouracil was 1.9 minutes and was 5.3 minutes for the cephalosporin - (5-fluorouracil) compound. Approximately 30 seconds after mixing, a 5 µl aliqout of the reaction mixture was injected into the HPLC. […] Thirty-six minutes after mixing the stock solutions the amount of compound eluting at […] was further diminished, and the amount of compound eluting at 1.9 minutes was correspondingly larger by intergration of the peak areas.

white blood cell (WBC) = test: Rat hematology protocol (white blood cell determination); assay type: in vivo, male Fischer 344 rats; details: day 3 post treatment, 1 mg/kg i.v., compared to all other groups
Experimental: The purpose of the following procedure was to compare the toxicity of the Substrate-Cytotoxic Agent to the toxicity of Cytotoxic Agent alone. • 1. Day 0: 25 male Fischer 344 rats (∼100g) are pre-bled (eyebleed) and injected i.v. as follows: • Group A: 5 rats + vehicle control: 0.5 ml 10 mM HEPES, 150 NaCl, pH 7.1 buffer containing 10% ethanol. • Group B: 5 rats + 1 mg/kg 4 desacetylvinblastine-3-carboxhydrazide (DAVLBHYD). Dissolve 1 mg DAVLBHYD in 0.5 ml absolute ethanol and add 4.5 ml HEPES-NaCl buffer. Inject each rat with 0.5 ml. • Group C: 5 rats + 1 mg/kg ("LY262758") (7-β-2-(phenoxyacetamido)-3-(((desacetylvinblastine)aminocarboxy)methylene)-3-cephem-1-β-sulfoxide-4-carboxybiacid, trifluoroacetic acid salt) (vinca content), (58% vinca). Dissolve 2 mg as above and inject 0.5 ml. • Group D: 5 rats + 1mg/kg ("LY266494"), (7-β-(2-(thien-2-yl)acetamido-3-(((desacetylvinblastinehydrazido)carbonyloxy)methylene)-3-cephem-4-carboxylic acid, hydrochloride salt (55.8% vinca). Dissolve 2 mg and inject 0.5 ml. • Group E: 5 rats + 1 mg/kg ("LY266070") 7-β-(2-(thien-2-yl)acetamido-3-(((desacetylvinblastinehydrazido)carbonyloxy)methylene)-3-cephem-1-β-sulfoxide-4-carboxylic acid, trifluoroacetic acid salt. Dissovle 2 mg and inject 0.5 ml. All animals were indentifed by ear punch and were bled on days 3 and 7 post treatment for white blood cell (WBC) determination. […]

[3] = day 3 after 1 mg/kg i.v., trifluoroacetic acid salt
[4] = substance alone, no conjugate, treatment time 6 Hours
[5] = substance alone, no conjugate, treatment time 48 Hours

P-99 E. cloacae beta-lactamase Enzyme, sequence (P05364 21-381): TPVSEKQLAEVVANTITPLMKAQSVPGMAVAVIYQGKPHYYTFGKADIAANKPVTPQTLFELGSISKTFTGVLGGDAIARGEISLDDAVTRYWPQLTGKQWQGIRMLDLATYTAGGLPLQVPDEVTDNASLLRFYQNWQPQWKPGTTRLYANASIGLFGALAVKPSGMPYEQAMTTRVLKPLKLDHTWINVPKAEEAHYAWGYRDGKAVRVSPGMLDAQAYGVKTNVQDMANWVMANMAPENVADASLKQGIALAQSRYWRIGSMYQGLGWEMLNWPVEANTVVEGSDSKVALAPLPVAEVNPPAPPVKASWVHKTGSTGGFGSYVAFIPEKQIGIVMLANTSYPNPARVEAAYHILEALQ

Compound: 7-β-2-(phenoxyacetamido)-3-(((desacetylvinblastine)aminocarboxy)methylene)-3-cephem-1-β-sulfoxide-4-carboxybiacid, trifluoroacetic acid salt [LY262758]
- WBC's, Day 0, Mean (male Fischer 344 rats): 13.4 x 1000
- WBC's, Day 3, Mean (male Fischer 344 rats; day 3 after 1 mg/kg i.v.): 14.8 x 1000
- WBC's, Day 7, Mean (male Fischer 344 rats): 11.2 x 1000
- WBC's, Day 3 (male Fischer 344 rats; [3]): 13.3 x 1000 and 14.6 x 1000 and 15.0 x 1000 and 16.3 x 1000 and 14.7 x 1000
- WBC's, Day 7 (male Fischer 344 rats; trifluoroacetic acid salt): 14.0 x 1000 and 13.0 x 1000 and 12.5 x 1000 and 9.0 x 1000 and 7.7 x 1000
- WBC's, Day 0 (male Fischer 344 rats; trifluoroacetic acid salt): 13.3 x 1000 and 14.3 x 1000 and 9.4 x 1000 and 10.2 x 1000 and 19.7 x 1000

Compound: 7-β-(2-(thien-2-yl)acetamido)-3-((((1-(desacetylvinblastine)amino)-2-ethylsulfide)methylene)-3-cephem-4-carboxylic acid [COMPOUND] [listing 1 of 2 here]
- toxicity to the tumor cells ([1]; LS174T cells first treated with B-L-CEM231 conjugate at 25 µg/ml for 1 hour): dramatically increased
- toxicity to the tumor cells ([1]; LS174T cells untreated with conjugate, compared with the Cytotoxic Agent from which it is derived): much less toxic to the tumor cells than the Cytotoxic Agent from which it is derived

Compound: 7-β-(2-(thien-2-yl)acetamido)-3-((((1-(desacetylvinblastine)amino)-2-ethylsulfide)methylene)-3-cephem-4-carboxylic acid [COMPOUND] [listing 2 of 2 here]
- ID50 ([1]; cells first treated with B-L-CEM231 conjugate 25 µg/ml for 1 hour, COMPOUND treatment time 6 Hours): 0.265 µg/mL
- ID50 ([1]; cells first treated with B-L-CEM231 conjugate 25 µg/ml for 1 hour, COMPOUND treatment time 48 Hours): <0.001 µg/mL
- ID50 [1, 4]: .154 µg/mL
- ID50 [1, 5]: <0.001 µg/mL

Compound: NCCSCC1=C(C(=O)O)N2C(=O)[C@@H](NC(=O)Cc3cccs3)[C@H]2SC1 [7-β-(2-(thien-2-yl)acetamido)-3-((2-aminoethyl-1-sulfide)methylene)-3-cephem-4-carboxylic acid, reference compound]
- release of thiol ([2]; 50 mM Tris, 100 mM NaCl, pH 8.0, DTNB, absorbance at 412 nm vs 264 nm): thiol is released as a result of beta-lactamase catalyzed cleavage of the cephalosporin, but that the release rate is slower than the catalytic rate

Compound: CC[C@]1(O)C[C@@H]2CN(CCc3c([nH]c4ccccc34)[C@@](C(=O)OC)(c3cc4c(cc3OC)N(C)[C@H]3[C@@](O)(C(=O)NN)[C@H](O)[C@]5(CC)C=CCN6CC[C@]43[C@@H]65)C2)C1 [DAVLB-Hyd, 4 desacetylvinblastine-3-carboxhydrazide, reference compound]
- WBC suppression (male Fischer 344 rats; day 3 after 1 mg/kg i.v., compared to all other groups): significant WBC suppression
- WBC's, Day 0, Mean (male Fischer 344 rats): 13.8 x 1000
- WBC's, Day 3, Mean (male Fischer 344 rats; day 3 after 1 mg/kg i.v.): 7.4 x 1000
- WBC's, Day 7, Mean (male Fischer 344 rats): 9.2 x 1000
- WBC's, Day 3 (male Fischer 344 rats; day 3 after 1 mg/kg i.v.): 4.4 x 1000 and 9.0 x 1000 and 5.4 x 1000 and 10.6 x 1000
- WBC's, Day 7 (male Fischer 344 rats): 5.0 x 1000 and 2.8 x 1000 and 19.8 x 1000
- WBC's, Day 0 (male Fischer 344 rats): 17.4 x 1000 and 10.9 x 1000 and 10.2 x 1000 and 12.7 x 1000 and 17.6 x 1000

Compound: CC[C@]1(O)C[C@@H]2CN(CCc3c([nH]c4ccccc34)[C@@](C(=O)OC)(c3cc4c(cc3OC)N(C)[C@H]3[C@@](O)(C(=O)NN)[C@H](O)[C@]5(CC)C=CCN6CC[C@]43[C@@H]65)C2)C1 [DAVLBHYD, 4 desacetylvinblastine-3-carboxhydrazide]
- white blood cell (WBC) determination (white blood cell (WBC)): significant WBC suppression

Compound: CCC1(O)CC2CN(CCc3c([nH]c4ccccc34)C(C(=O)OC)(c3cc4c(cc3OC)N(C)C3C(O)(C(=O)NCCS)C(O)C5(CC)C=CCN6CCC43C65)C2)C1 (stereo not shown) [Desacetylvinblastine aminoethanethiol, reference compound]
- ID50 [1, 4]: 0.26 µg/mL (≈ 0.319 µM)
- ID50 [1, 5]: <0.001 µg/mL

Compound: CC[C@]1(O)C[C@H]2CN(CCc3c([nH]c4ccccc34)[C@@](C(=O)OC)(c3cc4c(cc3OC)N(C)[C@H]3[C@@](O)(C(=O)NNC(=O)OCC5=C(C(=O)O)N6C(=O)[C@@H](NC(=O)Cc7cccs7)[C@H]6[S+]([O-])C5)[C@H](O)[C@]5(CC)C=CCN6CC[C@]43[C@@H]65)C2)C1.O=C(O)C(F)(F)F (stereo partly shown) [LY266070]
- WBC's, Day 0, Mean (male Fischer 344 rats): 13.0 x 1000
- WBC's, Day 3, Mean (male Fischer 344 rats; day 3 after 1 mg/kg i.v.): 13.9 x 1000
- WBC's, Day 7, Mean (male Fischer 344 rats): 9.6 x 1000
- WBC's, Day 3 (male Fischer 344 rats; [3]): 15.9 x 1000 and 12.8 x 1000 and 15.1 x 1000 and 14.5 x 1000 and 11.3 x 1000
- WBC's, Day 7 (male Fischer 344 rats; trifluoroacetic acid salt): 7.0 x 1000 and 14.5 x 1000 and 9.6 x 1000 (2×) and 7.1 x 1000
- WBC's, Day 0 (male Fischer 344 rats; trifluoroacetic acid salt): 14.1 x 1000 and 15.0 x 1000 and 9.9 x 1000 (2×) and 16.2 x 1000

Compound: CCC1(O)CC2CN(CCc3c([nH]c4ccccc34)C(C(=O)OC)(c3cc4c(cc3OC)N(C)C3C(O)(C(=O)NNC(=O)OCC5=C(C(=O)O)N6C(=O)C(NC(=O)Cc7cccs7)C6SC5)C(O)C5(CC)C=CCN6CCC43C65)C2)C1.Cl (stereo not shown) [LY266494]
- WBC's, Day 0, Mean (male Fischer 344 rats): 15.6 x 1000
- WBC's, Day 3, Mean (male Fischer 344 rats; day 3 after 1 mg/kg i.v.): 15.0 x 1000
- WBC's, Day 7, Mean (male Fischer 344 rats): 12.0 x 1000
- WBC's, Day 3 (male Fischer 344 rats; day 3 after 1 mg/kg i.v., hydrochloride salt): 19.2 x 1000 and 16.2 x 1000 and 14.3 x 1000 and 13.3 x 1000 and 12.1 x 1000
- WBC's, Day 7 (male Fischer 344 rats; hydrochloride salt): 8.3 x 1000 and 6.8 x 1000 and 11.4 x 1000 and 13.2 x 1000 and 20.1 x 1000
- WBC's, Day 0 (male Fischer 344 rats; hydrochloride salt): 15.6 x 1000 and 16.5 x 1000 and 14.3 x 1000 and 16.0 x 1000

Compound: O=C(Cc1cccs1)N[C@@H]1C(=O)N2C(C(=O)O)=C(Cn3cc(F)c(=O)[nH]c3=O)CS[C@H]12 [ceph-5-FU, 7-β-(2-(thien-2-yl)acetamido)-3-((N-1(5-fluorouracil)-yl)methylene)-3-cephem-4-carboxylic acid]
- expulsion of 5-fluorouracil (HPLC trace) ([2]; approximately 30 seconds after mixing with beta-lactamase): the cephalosporin had been consumed
- expulsion of 5-fluorouracil (HPLC trace) ([2]; twenty-one minutes after mixing, 5-fluorouracil elutes at 1.9 minutes): a large amount of compound eluting at 1.9 minutes was observed
